According to PMC3809102 (Current cancer drug targets, 2010):

Legend:
[1] = target: Ku70 (Homo sapiens, UniProt P12956); assay: surface plasmon resonance; assay type: binding
[2] = target: T1, SIRT1 (Homo sapiens, UniProt Q96EB6); assay: cell-free SIRT1 FRET-based screening assay; assay type: biochemical
T1 sequence (Q96EB6 2-747): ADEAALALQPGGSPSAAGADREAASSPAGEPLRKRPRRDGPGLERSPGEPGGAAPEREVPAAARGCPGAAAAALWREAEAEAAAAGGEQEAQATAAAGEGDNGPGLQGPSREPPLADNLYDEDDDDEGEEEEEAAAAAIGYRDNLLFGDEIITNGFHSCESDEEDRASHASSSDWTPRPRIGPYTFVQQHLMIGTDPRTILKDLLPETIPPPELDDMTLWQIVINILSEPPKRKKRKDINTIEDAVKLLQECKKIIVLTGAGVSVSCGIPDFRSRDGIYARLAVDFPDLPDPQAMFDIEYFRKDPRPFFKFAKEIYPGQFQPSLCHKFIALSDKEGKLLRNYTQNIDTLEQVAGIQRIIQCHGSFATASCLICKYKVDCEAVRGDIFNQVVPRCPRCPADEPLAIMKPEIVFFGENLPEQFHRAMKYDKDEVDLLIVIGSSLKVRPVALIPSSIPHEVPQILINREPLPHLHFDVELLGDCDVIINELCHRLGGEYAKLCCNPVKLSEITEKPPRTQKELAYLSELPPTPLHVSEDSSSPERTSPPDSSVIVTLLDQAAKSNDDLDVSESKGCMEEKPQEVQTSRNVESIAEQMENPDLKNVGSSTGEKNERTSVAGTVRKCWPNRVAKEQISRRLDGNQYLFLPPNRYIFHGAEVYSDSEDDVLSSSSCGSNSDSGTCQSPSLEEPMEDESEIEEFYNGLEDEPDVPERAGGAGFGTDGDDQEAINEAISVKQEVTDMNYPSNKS

Ku70, sequence (P12956 2-609): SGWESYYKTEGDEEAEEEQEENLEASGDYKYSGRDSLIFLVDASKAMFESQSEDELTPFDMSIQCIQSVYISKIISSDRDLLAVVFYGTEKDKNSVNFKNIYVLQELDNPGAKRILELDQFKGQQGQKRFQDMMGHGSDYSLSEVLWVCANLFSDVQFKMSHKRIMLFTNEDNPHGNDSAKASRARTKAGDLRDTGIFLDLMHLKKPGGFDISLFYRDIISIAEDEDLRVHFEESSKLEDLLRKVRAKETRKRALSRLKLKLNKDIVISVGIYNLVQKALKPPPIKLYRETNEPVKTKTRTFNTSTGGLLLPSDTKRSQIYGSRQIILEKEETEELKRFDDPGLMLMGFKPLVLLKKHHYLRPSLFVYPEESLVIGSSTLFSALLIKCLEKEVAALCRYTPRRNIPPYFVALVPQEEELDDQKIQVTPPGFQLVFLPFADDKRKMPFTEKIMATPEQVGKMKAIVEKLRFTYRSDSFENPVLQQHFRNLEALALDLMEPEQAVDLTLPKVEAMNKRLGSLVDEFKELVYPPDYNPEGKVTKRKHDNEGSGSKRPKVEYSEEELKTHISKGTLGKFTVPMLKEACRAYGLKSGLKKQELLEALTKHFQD

Kd [1] [µM]	Compound	cell-free SIRT1 FRET-based screening assay (Cayman kit), 15 μM [2]
169	COc1ccc(C2=NC(c3ccc(Cl)cc3)C(c3ccc(Cl)cc3)N2C(=O)N2CCNC(=O)C2)c(OC(C)C)c1 (racemic) [Nutlin-3, (±)-4-[4,5-Bis(4-chlorophenyl)-2-(2-isopropoxy-4-methoxy-phenyl)-4,5-dihydro-imidazole-1-carbonyl]-piperazin-2-one]	MI-219, MI-319 and Nutlin-3 significantly suppressed SIRT1 activity while the inactive analog MI-10 did not
0.17	MI-319	
